In patent US20090215714A1 (priority 2004, published 2009):
Entries after “also recorded” stand apart in the source; their conditions may differ.

Assays:
Type in all cases: in vivo, human
[1] = system: Glu, Gln, GABA and Lac in frontal gray matter (anterior cingulate); assay: Single voxel 1H MRS study of brain metabolites in frontal gray matter; conditions: for Gray Matter Glu Concentration, Mean / gray matter GABA concentration, Mean / gray matter Gln concentration, Mean / gray matter Lac concentration, Mean: cytidine group n = 19
Protocol: A companion imaging single voxel ^1H MRS study to the behavioral study described in Example 1 examined Glx and Lac changes in frontal gray matter. […] Brain MRS was performed using a 3.0 Tesla GE whole body imaging system (GE VH/i, USA). The localized MR spectra were recorded using a point-resolved spatially localized spectroscopy (PRESS) sequence on a General Electric 3T scanner, which was optimized for acquisition of ^1H MR spectra from the frontal lobe. Voxel size was 1.5×1.5×1.5 cm. The voxels were verified in scout views in T2 images obtained vertically in the Z-axis to include predominantly gray matter of the anterior cingulate for the frontal brain region. The acquisition parameters were: repetition time (TR), 2000 ms; echo time (TE), 35 ms; average=128, phase size-cycling=8, and acquisition time, 4 minutes 16 seconds.

[2] = system: treatment emergent mania (YMRS score); assay: Treatment-emergent mania/hypomania by Young Mania Rating Scale (YMRS) in the clinical trial
Protocol: (§1) 65 subjects with either bipolar disorder I or II, as determined by the Structured Clinical Interview for DSM-IV-Patient Version (SCID), were studied during a depressive episode, as determined by a Hamilton Depression Rating Scale (HAM-D) score of 16 or greater. […] HAM-D scores for every subject were evaluated and recorded once a week for twelve weeks following baseline assessment.
Tohen et al., (2003) Arch. Gen. Psychiatry, 60:1079-88.

[3] = system: depressive episode in subjects with bipolar disorder I or II (HAM-D score); assay: Double-blind clinical trial of cytidine add-on to divalproex; HAM-D scores in bipolar depression
Text: The new methods are based on a double-blind, long-term clinical trial designed to assess the impact of cytidine on patients with bipolar disorder who were undergoing a major depressive episode.
as §1
The HAM-D scale is a 17-item scale used in the art to assess the severity of depression in patients already diagnosed with an affective disorder. Higher scores indicate more severe depression. Questions posed to subjects relate to symptoms such as depressed mood, guilty feelings, suicide, sleep disturbances, anxiety levels, and weight loss. Hamilton, (1960) J. Neurology and Neurosurgery in Psychiatry, 23:56-62.

[4] = over the 4 week period, p=0.032

Nc1ccn([C@@H]2O[C@H](CO)[C@@H](O)[C@H]2O)c(=O)n1 [cytidine]
Gray Matter Glu Concentration, Mean ([1]; Baseline): 11.38 millimolar | gray matter GABA concentration, Mean ([1]; Baseline): 0.91 millimolar | gray matter Gln concentration, Mean ([1]; Baseline): 7.38 millimolar | gray matter Lac concentration, Mean ([1]; Baseline): 1.71 millimolar | Gray Matter Glu Concentration, Mean ([1]; Week 2): 9.18 millimolar | gray matter GABA concentration, Mean ([1]; Week 2): 0.97 millimolar | gray matter Gln concentration, Mean ([1]; Week 2): 7.21 millimolar | gray matter Lac concentration, Mean ([1]; Week 2): 1.44 millimolar | Gray Matter Glu Concentration, Mean ([1]; Week 4): 8.85 millimolar | gray matter GABA concentration, Mean ([1]; Week 4): 1.03 millimolar | gray matter Gln concentration, Mean ([1]; Week 4): 6.99 millimolar | gray matter Lac concentration, Mean ([1]; Week 4): 1.42 millimolar | decrease in Glu levels ([1]; over the 4-week period, p<0.01): 22.2% | decrease in Gln levels ([1]; over the 4-week period, p=0.241): 5.3% | decrease in Lac levels [1, 4]: 17.0% | increase in GABA levels [1, 4]: 13.2% | subjects with treatment-emergent mania, modified criteria ([2]; YMRS less than 12 at baseline and greater than 12 subsequently, cytidine plus divalproex): no subjects; also recorded: one subject | subjects with treatment-emergent mania ([2]; YMRS less than 15 at baseline and 15 or greater anytime during the study, 12 weeks, cytidine plus divalproex): No subject | subjects with treatment-emergent hypomania ([2]; cutoff of YMRS score of 9, 12-week trial period, vs six on placebo, p=0.041): one subject | subjects with treatment emergent hypomania ([2]; cutoff of YMRS score of 10, cytidine plus divalproex): one subject | affective improvement compared to placebo supplementation (FIG. 1) ([3]; HAM-D, add-on to divalproex, twelve weeks): enhanced the affective improvement | mean difference in HAM-D scores between groups ([3]; cytidine vs placebo, both add-on to divalproex, week 2 through 12, oral cytidine 1 gram/day): 2.66±0.65 | increase in antidepressant efficacy compared to divalproex alone ([3]; oral cytidine added to divalproex, bipolar depression): 10%
